Assays:
Format in all cases: functional
[1] = Antitumor activity against human […] cells
U-251 = test: Antitumor activity against human U251 cells
DMS-273 = test: Antitumor activity against human DMS273 cells
P388 = test: Antitumor activity against mouse P388 cells
CCRF-CEM = test: Antitumor activity against human CCRF-CEM cells
RXF 393 = test: Antitumor activity against human RXF393 cells
SF-295 = test: Antitumor activity against human SF295 cells
HOP-62 = test: Antitumor activity against human HOP62 cells
HL-60 = test: Antitumor activity against human HL60 cells

Measured: GI50

C[C@@H]1C[C@]2(O[C@H]3C=C4[C@@H]5CC[C@H]6Cc7nc8c(nc7C[C@]6(C)[C@H]5C[C@@H](O)[C@]4(CO)[C@H]3[C@@H]2C)C[C@@H]2CC[C@H]3C4=C[C@@H]5O[C@]6(O[C@](C)(CO)C[C@H]6O)[C@@H](C)[C@]5(O)[C@@]4(C)[C@H](O)C[C@@H]3[C@@]2(C)C8)OC1(C)C [CEPHALOSTATIN 8]
< 0.1 nM: all assays above

C[C@@H]1[C@H]2CC=C3[C@@H]4CC[C@H]5Cc6nc7c(nc6C[C@]5(C)[C@H]4CC(=O)[C@@]32COC1(O)[C@H](O)CC(C)(C)O)C[C@@H]1CC[C@H]2C3=C[C@@H]4O[C@]5(O[C@](C)(CO)C[C@H]5O)[C@@H](C)[C@]4(O)[C@@]3(C)[C@H](O)C[C@@H]2[C@@]1(C)C7 (stereo partly drawn) [CEPHALOSTATIN 9]
< 0.1 nM: all assays above

Reference: ChEMBL document CHEMBL1144741, “Review of cytotoxic cephalostatins and ritterazines: isolation and synthesis” (2008)
